From patent US7081260B2, “α-Glucosidase inhibitors from a natural source” (Council of Scientific and Industrial Research, priority 2002, dated 2006)
Values after ≈ are worked out from the molar mass of the structure shown.

What was measured:
[1] = molecular target: yeast α-glucosidase enzyme; assay: α-glucosidase inhibitory assay by the chromogenic method; type: biochemical; conditions: p-nitrophenyl-α-D-glucopyranoside substrate; for IC50 value: pH 7.00; for α-glucosidase inhibitory activity up to: pH 7.00, maximum inhibition
Protocol: Determination of α-Glucosidase Inhibition Activity of Compounds Isolated From P. longum:
The α-glucosidase inhibitory assay was done by the chromogenic method. In brief 10 μl of test compounds dissolved in DMSO (5 mg/ml and subsequent dilutions) were incubated for 5 min. with 5 μl of yeast α-glucosidase enzyme prepared in 100 mM phosphate buffer (pH 7.00). After 5 minutes of incubation, […] of 5 mM substrate (p-nitrophenyl-α-D-glucopyranoside prepared in the same buffer) were added. The pre-substrate and 5-min post-substrate addition absorbances were recorded at 405 nm spectrophotometrically. The increases in absorbance from pre-substrate addition to post substrate reaction were obtained. Percent inhibition was calculated by (1-O.D test/O.D control)×100 and inhibitory concentration 50% (IC50) was calculated by applying suitable regression analysis.

Collosobruchus chinenses = conditions: against Collosobruchus chinenses; cited from earlier work
Toxocara canis = conditions: against Toxocara canis; cited from earlier work
[2] = in vivo; cited from earlier work
[3] = test system: Moth fly (Telmatoscopus Albipunctatus); conditions: against Moth fly (Telmatoscopus Albipunctatus); cited from earlier work
Musca Domestica = conditions: against Musca Domestica; cited from earlier work
[4] = test system: p. gossipiella, H. virescens, H. ze; conditions: against p. gossipiella; cited from earlier work
Aedus Eriseratus larvae = conditions: against Aedus Eriseratus larvae; cited from earlier work
8 Mycobacterium stains = conditions: against 8 Mycobacterium stains; cited from earlier work
[5] = test system: Leplinotarsa dectmlineata; conditions: against Leplinotarsa dectmlineata; cited from earlier work
Cladosporiumsphaerosperm = conditions: against Cladosporiumsphaerosperm; cited from earlier work

CC(C)CNC(=O)C=CC=CCCCCCCCCC=Cc1ccc2c(c1)OCO2 [brachystamide-B, 15-(1,3-benzodioxol-5-yl)-N(2-methylpropyl)-2,4,14-pentadecatrienamide]
IC50 value [1]: 33.61 µg/mL (≈ 81.7 µM) | α-glucosidase inhibitory activity up to [1]: up to 73.90%

CC(C)CNC(=O)/C=C/C=C/CCCCCC/C=C/c1ccc2c(c1)OCO2 [guineensine, 13-(1,3-benzodioxol-5-yl)-N(2-methylpropyl)-2,4,12-tri decatrienamide]
IC50 value [1]: 20.15 µg/mL (≈ 52.5 µM) | α-glucosidase inhibitory activity up to [1]: up to 61.71% | BIOLOGICAL ACTIVITY: insecticidal (Collosobruchus chinenses): Insectcidal against | BIOLOGICAL ACTIVITY: larvicidal (Toxocara canis): Larvicidal against Toxocara | BIOLOGICAL ACTIVITY: insecticidal activity [2]: Insecticidal activity

c1cc2c(cc1[C@H]1OC[C@H]3[C@@H]1CO[C@@H]3c1ccc3c(c1)OCO3)OCO2 [sesamin, 5,5-(tetrahydro-1H,3H-furo(3,4-e)furan-1,4-diyl)bis-1,3-benzodioxol]
IC50 value [1]: 36.35 µg/mL (≈ 103 µM) | α-glucosidase inhibitory activity up to [1]: up to 76.18%

CCCCCCCCCCC=Cc1ccc2c(c1)OCO2 [pipataline, 5-(1-dodecenyl)-1,3-benzodioxol]
IC50 value [1]: 26.52 µg/mL (≈ 91.9 µM) | α-glucosidase inhibitory activity up to [1]: up to 77.45%

CCCCCC=CC=CC(=O)NCC(C)C [pellitorine, N-(2-methylpropyl)-2,4-decadienamide]
IC50 value [1]: 34.43 µg/mL (≈ 154 µM) | α-glucosidase inhibitory activity up to [1]: up to 86.03% | BIOLOGICAL ACTIVITY: insecticidal [3]: Insecticidal activities against | BIOLOGICAL ACTIVITY: insecticidal (Musca Domestica): Insecticidal against Musca | BIOLOGICAL ACTIVITY: insect growth inhibitor [4]: Insectgrowth inhibitor against | BIOLOGICAL ACTIVITY: larvicida activity (Aedus Eriseratus larvae): Larvicida activity against | BIOLOGICAL ACTIVITY: antituberculotic (8 Mycobacterium stains): Antituberculotic against 8 | BIOLOGICAL ACTIVITY: ovicidal [5]: Ovicidal against Leplinotarsa | BIOLOGICAL ACTIVITY: insecticidal (Collosobruchus chinenses): Insecticidal against | BIOLOGICAL ACTIVITY: antifungal (Cladosporiumsphaerosperm): Antifungal against
